The target in series [1] is Cytochrome P450 2D6 (Homo sapiens, UniProt P10635).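 Note: CYP2D6 member of a cytochrome P450 panel assay.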
Series [2] concerns Streptococcus. In words: GAS UMAA2166 growth inhibition – luminescence, BacTiterGlo, counter-screen for streptokinase expression inhibitor project, dose response (AID 1915).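 Note: potency for reduction of bacterial viability or growth.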 In kind it is functional, organism-based. (In general: A counterscreen serves to expose hits that act by an unwanted route or on another target.)
Series [3] concerns Streptococcus sp. 'group A'. Put plainly: Streptococcus pyogenes SK(-)GAS viability under kanamycin – luminescence, BacTiterGlo, confirmation, counter-screen for streptokinase expression inhibitor project, dose response (AID 1900). In kind it is functional, organism-based.
The target of series [4] is T1, Streptokinase A (Streptococcus pyogenes serotype M1, UniProt P10520).
T1 sequence (P10520 whole entry): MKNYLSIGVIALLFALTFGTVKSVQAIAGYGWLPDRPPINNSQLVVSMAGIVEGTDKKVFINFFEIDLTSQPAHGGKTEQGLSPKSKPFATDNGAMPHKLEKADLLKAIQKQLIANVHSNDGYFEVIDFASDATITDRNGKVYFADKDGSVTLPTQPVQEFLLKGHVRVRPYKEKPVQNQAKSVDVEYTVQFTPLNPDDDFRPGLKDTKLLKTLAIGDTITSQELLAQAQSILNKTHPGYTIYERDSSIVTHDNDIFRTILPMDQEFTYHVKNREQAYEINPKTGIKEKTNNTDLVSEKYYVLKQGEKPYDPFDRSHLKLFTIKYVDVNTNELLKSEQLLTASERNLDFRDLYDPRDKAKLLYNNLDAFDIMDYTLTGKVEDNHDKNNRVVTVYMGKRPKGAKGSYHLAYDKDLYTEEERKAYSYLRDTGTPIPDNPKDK
In words: viability-normalized secreted streptokinase activity reduction – plasminogen activation absorbance, OD405, dose response (AID 1914).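 Note: secreted streptokinase activity via plasminogen activation per viability signal from cell pellet.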 It counts as functional, Streptococcus pyogenes M1 GAS.

Series [5] has as its target Cytochrome P450 3A4 (Homo sapiens, UniProt P08684).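 Note: CYP3A4 tested as one member of a cytochrome P450 panel screen.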
Series [6] addresses T2, Cytochrome P450 2C9 (Homo sapiens, UniProt P11712).
Series [7] addresses T3, Cytochrome P450 1A2 (Homo sapiens, UniProt P05177).
T3 sequence (P05177 whole entry): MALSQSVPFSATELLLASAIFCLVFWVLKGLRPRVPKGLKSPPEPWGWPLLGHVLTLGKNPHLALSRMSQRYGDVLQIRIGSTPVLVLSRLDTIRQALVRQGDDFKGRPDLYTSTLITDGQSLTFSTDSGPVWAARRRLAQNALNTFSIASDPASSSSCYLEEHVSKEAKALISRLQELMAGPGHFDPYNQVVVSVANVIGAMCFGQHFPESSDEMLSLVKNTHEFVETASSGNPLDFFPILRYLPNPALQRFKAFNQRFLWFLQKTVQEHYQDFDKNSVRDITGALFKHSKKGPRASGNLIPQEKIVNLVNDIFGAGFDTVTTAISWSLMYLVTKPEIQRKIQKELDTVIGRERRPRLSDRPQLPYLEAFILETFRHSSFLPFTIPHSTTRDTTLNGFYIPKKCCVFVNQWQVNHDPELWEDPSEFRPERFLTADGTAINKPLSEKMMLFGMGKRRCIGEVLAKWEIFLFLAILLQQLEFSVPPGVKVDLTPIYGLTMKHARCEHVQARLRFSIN

A short description of series [8]: fluconazole-exposed Candida albicans growth modulators – fluorescence, retest, confirmation (AID 2467). In kind it is functional, cell-based.
A short description of series [9]: NIH-3T3 fibroblast cytotoxicity, dose response, cytotoxicity control, cell-based, fluorescence, Alamar Blue, secondary assay (AID 2327).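 Note: NIH-3T3 mouse fibroblasts cultured with fluconazole at 8 µg/mL.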 It counts as functional. A general note: Alamar Blue is a resazurin reagent that responds to reducing activity.
Series [10] concerns the target FAD-linked sulfhydryl oxidase ALR (Homo sapiens, UniProt P55789). In words: ALR-catalysed DTT oxidation blockers – biochemical, H2O2 detection, luminescence, cherry-pick, dose response (AID 493248).
Series [11] deals with T4, Rac GTPase-activating protein 1 (Homo sapiens, UniProt Q9H0H5).
T4 sequence (Q9H0H5 whole entry): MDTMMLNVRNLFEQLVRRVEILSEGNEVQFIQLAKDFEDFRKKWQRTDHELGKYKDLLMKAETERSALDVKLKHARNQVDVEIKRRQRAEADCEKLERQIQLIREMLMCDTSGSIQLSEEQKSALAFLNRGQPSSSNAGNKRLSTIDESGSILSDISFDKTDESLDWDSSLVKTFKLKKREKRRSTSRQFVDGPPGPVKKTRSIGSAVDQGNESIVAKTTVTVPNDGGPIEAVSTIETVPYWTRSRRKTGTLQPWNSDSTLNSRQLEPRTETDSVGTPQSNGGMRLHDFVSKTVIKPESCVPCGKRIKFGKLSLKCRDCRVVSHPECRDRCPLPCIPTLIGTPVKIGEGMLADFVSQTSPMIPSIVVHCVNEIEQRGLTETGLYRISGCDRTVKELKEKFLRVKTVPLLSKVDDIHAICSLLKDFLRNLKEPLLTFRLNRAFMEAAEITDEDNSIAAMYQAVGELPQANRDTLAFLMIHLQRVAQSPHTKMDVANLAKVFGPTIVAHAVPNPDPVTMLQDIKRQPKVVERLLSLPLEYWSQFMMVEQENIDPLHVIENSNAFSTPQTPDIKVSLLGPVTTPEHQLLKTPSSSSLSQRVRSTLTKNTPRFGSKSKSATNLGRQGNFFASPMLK
In words: blockers of MgcRacGAP-driven Rac1 GTP hydrolysis – biochemical, ADP Hunter fluorescence, primary and confirmatory, confirmation (AID 624330). It counts as functional.

In series [12] the target is Large T antigen (Simian virus 40, UniProt P03070). In kind it is functional, Betapolyomavirus macacae.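 Note: Confirmatory-stage PubChem screen for compounds that inhibit SV40 T antigen.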
Series [13] concerns the target Beta-galactosidase (Escherichia coli, UniProt Q8VNN2). In words: detection-enzyme interference by beta-gal modulators – biochemical, E. coli enzyme, set 3, artefact control for CCR6 antagonist project, dose response (AID 504712). In kind it is functional.
Series [14] addresses Peroxisome proliferator-activated receptor gamma/Nuclear receptor coactivator 2 (Homo sapiens, UniProt P37231). In words: TR-FRET dose response biochemical High Throughput Screening assay for agonists of the steroid receptor coactivator 2 (SRC-2) recruitment by the peroxisome proliferator-activated receptor gamma (PPAR gamma): non-selective agonists. [Related pubchem assays: 1297, 1032 ]. In kind it is functional.

For series [15], the target named is Peroxisome proliferator-activated receptor gamma/Nuclear receptor coactivator 1 (Homo sapiens, UniProt P37231). In words: TR-FRET dose response biochemical High Throughput Screening assay for agonists of the steroid receptor coactivator 1 (SRC-1) recruitment by the peroxisome proliferator-activated receptor gamma (PPAR gamma): non-selective agonists. [Related pubchem assays (depositor defined):AID1300, AID1808, AID504735, AID631]. It counts as protein assay. A general note: Time-resolved FRET reads energy transfer from a long-lived donor to a nearby acceptor.

Series [16] deals with Peroxisome proliferator-activated receptor gamma/Nuclear receptor coactivator 3 (Homo sapiens, UniProt P37231). In words: TR-FRET dose response biochemical High Throughput Screening assay for agonists of the steroid receptor coactivator 3 (SRC-3) recruitment by the peroxisome proliferator-activated receptor gamma (PPAR gamma): non-selective agonists. [Related pubchem assays: 1301 (Confirmation screen.), 1048 (Primary screen.)]. In kind it is functional.

Series [17] concerns the target T2, Cytochrome P450 2C9. The source holds these as a separate data set.
Series [18] has as its target Cytochrome P450 2C19 (Homo sapiens, UniProt P33261). In words: Cytochrome panel assay with activity outcomes. Panel member name: p450-cyp2c19 Compounds with AC50 equal or less than 10 uM are considered active. It counts as functional. The note with it: read-out: AC50.

The source made the active and inactive calls.

T2 sequence (P11712 whole entry): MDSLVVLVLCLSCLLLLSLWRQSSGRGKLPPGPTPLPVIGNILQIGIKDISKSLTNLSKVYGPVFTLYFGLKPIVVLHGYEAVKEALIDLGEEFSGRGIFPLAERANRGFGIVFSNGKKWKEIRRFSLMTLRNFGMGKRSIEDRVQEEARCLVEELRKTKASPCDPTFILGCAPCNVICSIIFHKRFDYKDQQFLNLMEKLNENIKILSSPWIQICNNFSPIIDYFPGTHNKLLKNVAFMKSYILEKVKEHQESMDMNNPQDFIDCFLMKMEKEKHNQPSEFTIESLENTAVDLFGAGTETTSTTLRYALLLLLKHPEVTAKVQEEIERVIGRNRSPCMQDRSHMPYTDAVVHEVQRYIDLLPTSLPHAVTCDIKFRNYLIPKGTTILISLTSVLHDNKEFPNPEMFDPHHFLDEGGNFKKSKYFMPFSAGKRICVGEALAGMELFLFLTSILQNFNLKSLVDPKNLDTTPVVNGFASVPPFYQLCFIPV
Chain of Peroxisome proliferator-activated receptor gamma/Nuclear receptor coactivator 1 (P37231 whole entry): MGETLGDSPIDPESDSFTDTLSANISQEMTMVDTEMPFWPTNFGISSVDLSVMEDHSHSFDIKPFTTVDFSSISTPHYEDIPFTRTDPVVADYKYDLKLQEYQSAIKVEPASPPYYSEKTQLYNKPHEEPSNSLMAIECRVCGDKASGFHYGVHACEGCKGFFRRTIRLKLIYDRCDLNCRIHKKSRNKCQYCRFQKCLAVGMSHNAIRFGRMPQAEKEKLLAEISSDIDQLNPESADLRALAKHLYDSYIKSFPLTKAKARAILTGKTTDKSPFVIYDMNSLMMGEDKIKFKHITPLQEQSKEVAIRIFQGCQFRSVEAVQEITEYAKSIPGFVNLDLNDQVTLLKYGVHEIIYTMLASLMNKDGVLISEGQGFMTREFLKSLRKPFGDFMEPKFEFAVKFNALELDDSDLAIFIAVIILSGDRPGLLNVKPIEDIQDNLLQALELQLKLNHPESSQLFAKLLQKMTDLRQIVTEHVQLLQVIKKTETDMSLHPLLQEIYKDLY
Chain of Peroxisome proliferator-activated receptor gamma/Nuclear receptor coactivator 1 (Q15788 whole entry, further chain): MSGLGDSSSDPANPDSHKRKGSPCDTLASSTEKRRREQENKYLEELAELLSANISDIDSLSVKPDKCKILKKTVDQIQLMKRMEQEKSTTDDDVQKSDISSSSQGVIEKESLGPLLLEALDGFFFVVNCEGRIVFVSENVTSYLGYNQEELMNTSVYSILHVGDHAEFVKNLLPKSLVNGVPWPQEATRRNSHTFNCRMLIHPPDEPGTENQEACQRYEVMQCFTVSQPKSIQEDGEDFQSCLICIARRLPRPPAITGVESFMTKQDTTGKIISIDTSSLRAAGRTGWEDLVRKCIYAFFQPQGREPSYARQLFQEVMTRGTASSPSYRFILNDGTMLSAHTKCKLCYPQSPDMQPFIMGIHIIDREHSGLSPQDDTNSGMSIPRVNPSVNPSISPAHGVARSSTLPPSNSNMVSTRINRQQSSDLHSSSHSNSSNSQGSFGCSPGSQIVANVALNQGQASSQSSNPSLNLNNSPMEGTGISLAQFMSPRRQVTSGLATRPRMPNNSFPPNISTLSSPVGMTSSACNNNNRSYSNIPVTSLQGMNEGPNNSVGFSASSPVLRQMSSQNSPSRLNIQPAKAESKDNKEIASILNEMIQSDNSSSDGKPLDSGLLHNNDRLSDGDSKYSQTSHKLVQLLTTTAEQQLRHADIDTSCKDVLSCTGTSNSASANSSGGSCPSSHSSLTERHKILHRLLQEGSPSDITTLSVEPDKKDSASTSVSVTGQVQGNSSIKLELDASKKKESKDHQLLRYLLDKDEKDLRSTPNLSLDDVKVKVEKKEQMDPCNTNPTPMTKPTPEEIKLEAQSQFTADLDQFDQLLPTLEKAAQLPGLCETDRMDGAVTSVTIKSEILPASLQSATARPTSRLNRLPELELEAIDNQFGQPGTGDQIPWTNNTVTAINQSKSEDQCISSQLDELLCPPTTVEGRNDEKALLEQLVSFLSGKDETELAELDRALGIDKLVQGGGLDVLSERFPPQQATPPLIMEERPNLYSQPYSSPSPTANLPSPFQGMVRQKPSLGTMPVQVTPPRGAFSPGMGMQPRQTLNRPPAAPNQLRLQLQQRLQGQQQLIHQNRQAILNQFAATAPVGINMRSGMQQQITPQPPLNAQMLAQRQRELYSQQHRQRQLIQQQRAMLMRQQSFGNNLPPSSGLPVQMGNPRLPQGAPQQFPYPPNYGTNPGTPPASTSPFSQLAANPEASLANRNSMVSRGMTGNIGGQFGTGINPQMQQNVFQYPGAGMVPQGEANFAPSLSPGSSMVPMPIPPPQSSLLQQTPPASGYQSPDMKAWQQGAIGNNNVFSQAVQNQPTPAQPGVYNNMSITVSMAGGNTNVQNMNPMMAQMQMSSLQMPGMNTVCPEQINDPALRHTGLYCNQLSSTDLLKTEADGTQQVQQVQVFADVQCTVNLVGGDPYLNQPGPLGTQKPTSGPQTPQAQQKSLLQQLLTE
Chain of Peroxisome proliferator-activated receptor gamma/Nuclear receptor coactivator 3 (P37231 whole entry): as the sequence (P37231 whole entry) above
Chain of Peroxisome proliferator-activated receptor gamma/Nuclear receptor coactivator 3 (Q9Y6Q9 whole entry, further chain): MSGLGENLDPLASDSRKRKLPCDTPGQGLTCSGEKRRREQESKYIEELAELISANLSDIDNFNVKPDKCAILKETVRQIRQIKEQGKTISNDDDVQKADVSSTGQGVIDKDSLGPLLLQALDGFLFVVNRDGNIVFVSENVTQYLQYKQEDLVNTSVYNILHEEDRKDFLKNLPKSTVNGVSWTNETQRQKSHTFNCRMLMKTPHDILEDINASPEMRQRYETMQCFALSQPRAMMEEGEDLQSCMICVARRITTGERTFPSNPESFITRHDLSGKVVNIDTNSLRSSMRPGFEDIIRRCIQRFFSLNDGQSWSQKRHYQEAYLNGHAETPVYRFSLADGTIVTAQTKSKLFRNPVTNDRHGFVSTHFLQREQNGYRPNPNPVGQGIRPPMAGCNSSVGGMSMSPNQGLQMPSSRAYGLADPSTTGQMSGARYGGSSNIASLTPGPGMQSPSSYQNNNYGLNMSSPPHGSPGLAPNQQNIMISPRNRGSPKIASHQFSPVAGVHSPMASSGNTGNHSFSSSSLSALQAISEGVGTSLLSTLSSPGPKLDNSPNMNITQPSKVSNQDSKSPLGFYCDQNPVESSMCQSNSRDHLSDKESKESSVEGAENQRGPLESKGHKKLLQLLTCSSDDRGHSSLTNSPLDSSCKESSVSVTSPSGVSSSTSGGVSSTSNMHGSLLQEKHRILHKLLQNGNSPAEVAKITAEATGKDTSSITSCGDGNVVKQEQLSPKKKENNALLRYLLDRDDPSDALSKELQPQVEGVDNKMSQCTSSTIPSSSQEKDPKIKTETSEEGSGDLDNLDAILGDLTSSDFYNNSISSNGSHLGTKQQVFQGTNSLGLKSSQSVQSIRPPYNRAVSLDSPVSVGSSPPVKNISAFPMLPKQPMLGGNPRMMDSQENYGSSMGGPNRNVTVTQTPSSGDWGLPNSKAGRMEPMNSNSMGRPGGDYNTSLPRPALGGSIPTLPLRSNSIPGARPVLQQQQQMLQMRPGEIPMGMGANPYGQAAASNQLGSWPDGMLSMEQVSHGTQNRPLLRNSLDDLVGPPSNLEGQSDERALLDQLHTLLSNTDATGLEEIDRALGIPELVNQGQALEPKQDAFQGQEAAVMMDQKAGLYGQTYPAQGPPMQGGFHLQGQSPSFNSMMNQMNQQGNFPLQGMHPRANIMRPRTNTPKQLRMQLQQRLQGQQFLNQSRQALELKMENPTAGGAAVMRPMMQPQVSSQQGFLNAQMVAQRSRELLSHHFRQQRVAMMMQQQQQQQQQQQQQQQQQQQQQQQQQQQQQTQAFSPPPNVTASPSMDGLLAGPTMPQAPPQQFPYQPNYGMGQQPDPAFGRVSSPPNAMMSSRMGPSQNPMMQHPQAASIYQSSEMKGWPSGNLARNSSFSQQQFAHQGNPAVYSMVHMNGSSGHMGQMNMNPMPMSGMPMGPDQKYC
Chain of Cytochrome P450 3A4 (P08684 whole entry): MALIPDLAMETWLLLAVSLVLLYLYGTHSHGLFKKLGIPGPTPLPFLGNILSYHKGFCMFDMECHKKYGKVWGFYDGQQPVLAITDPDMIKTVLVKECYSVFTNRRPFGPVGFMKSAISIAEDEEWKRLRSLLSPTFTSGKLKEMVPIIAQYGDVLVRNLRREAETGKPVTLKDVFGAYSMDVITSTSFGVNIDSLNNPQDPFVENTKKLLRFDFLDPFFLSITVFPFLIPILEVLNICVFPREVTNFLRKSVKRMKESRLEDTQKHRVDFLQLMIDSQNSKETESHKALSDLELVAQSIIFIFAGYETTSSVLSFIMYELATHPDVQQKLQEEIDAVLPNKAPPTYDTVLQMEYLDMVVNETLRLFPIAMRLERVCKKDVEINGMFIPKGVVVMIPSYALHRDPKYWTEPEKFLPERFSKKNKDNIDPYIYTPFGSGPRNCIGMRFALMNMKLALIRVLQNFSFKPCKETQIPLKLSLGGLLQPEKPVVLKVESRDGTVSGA
Chain of FAD-linked sulfhydryl oxidase ALR (P55789 whole entry): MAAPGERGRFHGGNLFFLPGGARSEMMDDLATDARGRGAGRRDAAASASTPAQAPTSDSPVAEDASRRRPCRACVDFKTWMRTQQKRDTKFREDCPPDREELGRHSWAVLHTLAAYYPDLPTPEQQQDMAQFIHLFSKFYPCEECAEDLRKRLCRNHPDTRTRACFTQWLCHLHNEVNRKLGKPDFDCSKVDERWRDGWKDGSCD

Usually AC50 stands for the concentration at which the activity in the assay is half-maximal. What is called EC50 is the concentration at which the effect is half-maximal. Turning to `Cc1nn(-c2ccccc2)c(C)c1/C=N/NC(=O)c1cc(-c2ccc(Cl)s2)[nH]n1`, the values for the AC50 in series [1] and in series [5] were 25.1 µM (inconclusive) and “inconclusive”, respectively. Also, the EC50 in series [2] is 9.32 µM (active); in [3], 10.8 µM (active); in series [4], > 150 µM (not active).
As to `O=C(NCc1ccc(Cl)cc1)c1ccc(Cl)cc1[N+](=O)[O-]`, the figures for the AC50 result in [6] and in series [7] were “inconclusive” and 2.82 µM (inconclusive), respectively.
For `Cn1c(=O)n(CC#N)c2ccccc21`, the AC50 entry was “inconclusive” in series [6] and 12.6 µM (inconclusive) in series [7]. For the same compound, the results for the EC50 in series [8] and in series [9] were 4.1 µM (active) and > 160 µM (inconclusive), respectively.
As usually defined, the IC50 is the point on the concentration scale where inhibition reaches its midpoint. `O=C1CS/C(=N\c2ccc(O)cc2)N1c1ccc(O)cc1`: the AC50 in series [10] was 3.26 µM (active). For the same compound, the IC50 is 51.9 µM (active) in [11] and 11.4 µM (active) in series [12].
As to `CCOc1cccc(C(=O)NC(=S)Nc2cccc(C)c2)c1`, the IC50 in [13] is > 66.6 µM (inactive).
Turning to `COc1ccc2c(c1OC)C(=O)N(c1ccc(O)cc1)C2`, the IC50 in [12] was > 100 µM (active).
On to `CCN(CCCNC(=O)CC(C(=O)N1CCc2ccccc21)n1ccnc1)c1ccccc1` (centres undefined), for which, in series [6], the AC50 entry is given as “inconclusive”.
As to `CSc1cnn(-c2ccccc2)c(=O)c1SC`, the EC50 in [14] was 1.75 µM (active); in series [15], 1.97 µM (active); in series [16], > 79.4 µM (not active).
For `CCCCN(CC)C(=O)CSc1cc(=O)n(C)c2ccccc12` the same measures were > 79.4 µM (not active), > 79.4 µM (inactive) and > 79.4 µM (not active).
As to `O=C(c1cccc(F)c1)N1CCC2(CC1)CCN(C(c1ccccc1)c1ccccc1)CC2`, the results for the AC50 in series [17], in series [7] and in series [5] were 39.8 µM (inconclusive), 10 µM (inconclusive) and “inconclusive”, respectively.
Take `CN(CCCNC(=O)CSc1cc(=O)n(C)c2cc(Cl)ccc12)Cc1ccccc1`: the EC50 in series [14] was > 79.4 µM (not active); in series [15], > 79.4 µM (inactive); in [16] it was > 79.4 µM (not active).
On to `O=c1c(-c2ccccc2)nc2cnc(Oc3ccccc3)nc2n1C1CC1`, for which the AC50 is 25.1 µM (inconclusive) in series [18] and “inconclusive” in [5].
As for `COc1ccc(N2CCN(CCNC(=O)C3CCN(S(=O)(=O)c4cccs4)CC3)CC2)cc1`, the values for the AC50 in series [17], in [18] and in [5] were 20 µM (inconclusive), 28.2 µM (inconclusive) and “inconclusive”, respectively.
